Test results as given in patent publication US9107919B2, “Pharmaceutical compositions comprising imidazoquinolin(amines) and derivatives thereof suitable for local administration” (priority 2009, dated 2015).
Values after ≈ are worked out from the molar mass of the structure shown.

Columns and labels:
[1] = Solubility of imiquimod in glycerol or propylene glycol; format: physicochemical; settings: for imiquimod concentration in solution: 120° C. 24 h, then water added
Method: Imiquimod was weighed (100 mg) and added of glycerol or propylene glycol to a volume of 10 ml. After shaking (at 120° C. for 24 hours) and cooling, 10 ml of water were added: the dispersions were filtered and the imiquimod amount in the liquid phases was determined. […] When propylene glycol was used the pH was 3.03 and the concentration of imiquimod in solution was 0.02%.

[2] = Imiquimod solubility in glacial acetic acid and buffers (HPLC/UV); format: physicochemical
Method: The solubility was experimentally determined weighing 1200 mg of drug, adding 10 ml of glacial acetic acid and gently shaking the dispersion for 24 hours. This sample, after filtration (0.22 μm Millipore membrane filter) was analyzed by HPLC for the imiquimod content and its pH was measured.
Imiquimod (738 mg) was initially dissolved in glacial acetic acid (10 ml). A volume of this solution was appropriately diluted with phosphate buffer pH 7.0 (0.1 M), citrate buffer pH 6.0 (0.1 M) or acetate buffer pH 5.0 (0.1 M) to prepare systems containing 2.0% of drug. The samples, after filtration by 0.22 μm Millipore membrane filter, were spectrophotometrically and chromatographically analyzed for the imiquimod content. The pH was determined.

[3] = Toxicity of intravesical imiquimod in pigs (well-being, blood, bladder histology); format: in vivo, pig
Method: Animal procedures were performed according to the protocol approved by the Institutional Animal Care and Use Committee (IACUC, Radboud University Nijmegen Medicai Centre, The Netherlands) and in compliance with national and European regulations. Female pigs (Dutch Landrace) were used for this study. The urogenital tract of the pig closely resembles the human urogenital system, and the shape of the penis and the preputial diverticulum prevent transurethral catheterization of a male pig. The sows were housed in special swine stainless steel battery cages and fed with universal swine food. The pigs were divided into four groups of six animals. Experimental procedures were performed under general anesthesia. […]
Body temperature was measured rectally before and 1, 8 and 24 hours and one week after starting treatment. The well being of the animals was monitored by experienced staff by a selected protocollary list of possible signs and symptoms of toxicity before the experiment, just after the instillation and just before cystectomy.
24 hours after treatment three animals per group were sacrificed and cystectomised and 7 days after treatment the remaining animals underwent the same procedure. […] Material was embedded in paraffin, sectioned, and stained with H&E. The slides were evaluated for signs of inflammation and allergic reaction in submucosa and mucosa. […]

[4] = Solubility of imiquimod in short-chain acids, cyclodextrin and surfactants (spectrophotometry); format: physicochemical
Method: Some inorganic and organic acids were considered as potential solubilizers of the drug. 100 mg imiquimod were dissolved in 10 ml of phosphoric acid 0.1 M, succinic acid 0.1 M, citric acid 0.1 M, acetic acid 0.01 M, 0.05 M, 0.1 M and lactic acid 0.01 M, 0.05 M, 0.088 M, and 0.1 M. These systems, after filtration, were spectrophotometrically analyzed for imiquimod and their pH was measured.
Exactly weighed amounts of imiquimod (200 mg) and hydroxypropyl-β-cyclodextrin (HP-β-CD) (4000 mg) were dissolved in 10 ml of: • water • water at pH 5.0 (corrected with HCl) • water at pH 3.0 (corrected with HCl) • lactic acid solution (0.1 M)
After shaking for 24 hours and filtration (0.22 μm Millipore membrane filter) the solubilised imiquimod was spectrophotometrically determined. The solution pH was also measured.
Imiquimod (200 mg) was weighed and mixed with different amounts of surfactants (Tween 20, Tween 80, Cremophor EL or Pluronic F-68) in order to prepare formulations containing 0.5, 2.5 and 5% of surface active agent. Each mixture was added to 10 ml of lactic acid (0.1 M), gently shaken for 24 hours, filtered and analyzed by spectrophotometry and submitted to pH measurement.
The imiquimod present in solution in compositions prepared with different acids and surfactants is spectrophotometrically determined and is shown in Table 5 together with the pH value.

[5] = cited from earlier work
[6] = Imiquimod diffusion/release, Franz cell with cellulose acetate membrane; format: physicochemical; settings: 0.1 M lactic acid solution, 37° C., first hour
Method: The imiquimod diffusion/release experiments have been performed with Franz cells with an effective diffusion area of 1.76 cm^2 and a receiving compartment volume of 14 ml: the donor compartment contained about 2 g of gel formulation, while the receiving one was filled with 0.1 M lactic acid solution (pH=3.5). Between the two compartments, a cellulose acetate membrane (MWCO=23000) was interposed. The experiments were carried out at 37° C. using a re-circulating bath and the fluid in the receptor chamber was stirred continuously at 300 rpm.
At prefixed time intervals, the receiving phase was completely withdrawn and substituted by fresh acid solution. The receiving solution was submitted to UV analysis for imiquimod.

[7] = Pharmacokinetics of intravesical imiquimod in pigs (plasma, urine); format: in vivo, pig; settings: female, Dutch Landrace, other: intravesical instillation, 50 mL of imiquimod 0.5% solution
Method: Female pigs (Dutch Landrace) were used for this study. […] The pigs were divided into four groups of six animals. Experimental procedures were performed under general anesthesia. Premedication contained a mixture of 10 mg/kg ketamine and 0.5 to 1.0 mg/kg midazolam i.m. in one shot. Sedation maintenance was done by the same mixture in half the dosage every 45 minutes. The bladder was emptied without suction trauma prior to the start of treatment (via 12 French Foley catheter) and 50 mL of the study drug was instilled intravesically. […] The catheter was clamped and the instillation fluid was retained in the bladder for 60 minutes, after which the bladder was emptied. The bladder was not rinsed after emptying.
Blood samples for pharmacokinetic analysis and cytokine measurement were collected in 4 mL lithium heparin tubes with gel divider before instillation of the study drug and 15, 30, 60, 120, 240 and 480 minutes after the beginning of drug instillation and also just before cystectomy. The samples were transferred on ice to the laboratory for plasma processing within 30 minutes. […]
The post-treatment evacuated bladder content and the evacuated urine just before necropsy were collected for analysis of imiquimod concentration. […] Imiquimod concentrations in plasma and urine was determined by CHIMAN s.r.1. […]

[8] = Preliminary solubility tests of imiquimod (visual inspection); format: physicochemical
Method: 48 mg of imiquimod was weighed and added of hydrochloric acid solutions at different concentrations: in particular 48.2 mg imiquimod were treated with 8 ml hydrochloric acid 0.1 N, 48.6 mg imiquimod with 9 ml hydrochloric acid 0.2 N and 48.4 mg imiquimod with 8 ml hydrochloric acid 2 N. After vortexing for 5 minutes, the samples were visually inspected.
A weighed amount of drug (48.2 mg) was dissolved under agitation in 2 ml glacial acetic acid. After complete solubilisation a weighed aliquot of imiquimod (150 mg) was added to this solution in order to visually evaluate the maximum concentration of dissolved drug.
The solubility of imiquimod at different pH values was determined. Two different procedures were used. The drug was dispersed in the buffer (without acetic acid as co-solvent). 72 mg imiquimod were dispersed with 10 ml citrate buffer, 155 mg imiquimod in 10 ml phosphate buffer and 192 mg in 10 ml acetate buffer. After vortexing for 5 minutes, each sample was visually inspected.
A visual inspection of the systems was carried out.

[9] = Imiquimod solubility in different solvent systems; format: physicochemical
Method: The dispersions have been centrifuged at 10,000 rpm for 10 minutes and the liquid phases collected and stored at room temperature until analysed. The imiquimod concentration in these solutions was spectrophotometrically (λ=319 nm) determined after appropriated dilution.

[10] = 27% glacial acetic acid/73% acetate buffer pH 5.0 (0.1 M), system with 2.0% drug
[11] = 27% glacial acetic acid/73% citrate buffer pH 6.0 (0.1 M), system with 2.0% drug
[12] = 27% glacial acetic acid/73% phosphate buffer pH 7.0 (0.1 M), system with 2.0% drug
[13] = HP-β-CD 40.0% (water at pH 3.0 corrected with HCl)
[14] = HP-β-CD 40.0% (water at pH 5.0 corrected with HCl)
[15] = lactic acid 0.100 M + Cremophor EL 0.5%
[16] = lactic acid 0.100 M + Cremophor EL 2.5%
[17] = lactic acid 0.100 M + Cremophor EL 5.0%
[18] = lactic acid 0.100 M + HP-β-CD 40.0%
[19] = lactic acid 0.100 M + Pluronic F68 0.5%
[20] = lactic acid 0.100 M + Pluronic F68 2.5%
[21] = lactic acid 0.100 M + Pluronic F68 5.0%
[22] = lactic acid 0.100 M + Tween 20 0.5%
[23] = lactic acid 0.100 M + Tween 20 2.5%
[24] = lactic acid 0.100 M + Tween 20 5.0%
[25] = lactic acid 0.100 M + Tween 80 0.5%
[26] = lactic acid 0.100 M + Tween 80 2.5%
[27] = lactic acid 0.100 M + Tween 80 5.0%
[28] = dissolved in glacial acetic acid, then diluted with buffers

SMILES: CC(C)Cn1cnc2c(N)nc3ccccc3c21 [imiquimod, 1-isobutyl-1H-imidazo[4,5-c]quinolin-4-amine]
- pH ([1]; glycerol system): 5.42
- imiquimod concentration in solution ([1]; glycerol): 0.02%
- pH ([1]; propylene glycol system): 3.03
- imiquimod concentration in solution ([1]; propylene glycol): 0.02%
- solubility in pure acetic and lactic acid [2]: > 7.5 % w/v
- pH ([2]; 27% glacial acetic acid/73% acetate buffer pH 5.0): 2.92
- Imiquimod solubility, HPLC [2, 10]: 1.89 % w/v
- Imiquimod solubility, UV [2, 10]: 1.92 % w/v
- pH ([2]; 27% glacial acetic acid/73% citrate buffer pH 6.0): 3.20
- Imiquimod solubility, HPLC [2, 11]: 0.86 % w/v
- Imiquimod solubility, UV [2, 11]: 0.72 % w/v
- pH ([2]; 27% glacial acetic acid/73% phosphate buffer pH 7.0): 2.92
- Imiquimod solubility, HPLC [2, 12]: 1.69 % w/v
- Imiquimod solubility, UV [2, 12]: 1.55 % w/v
- Imiquimod solubility, HPLC ([2]; 100% glacial acetic acid, 24 h shaking): 7.50 % w/v
- tolerability of intravesical administration [3]: well tolerated, causes no bladder wall toxicity
- imiquimod in solution [4, 13]: 0.655 % w/v
- pH [4, 13]: 3.05
- imiquimod in solution [4, 14]: 0.143 % w/v
- pH [4, 14]: 5.17
- imiquimod in solution ([4]; HP-β-CD 40.0%, no acid (water)): 0.004 % w/v
- pH ([4]; HP-β-CD 40.0%, no acid (water)): 7.09
- imiquimod in solution ([4]; acetic acid 0.010 M): 0.070 % w/v
- pH ([4]; acetic acid 0.010 M): 4.37
- imiquimod in solution ([4]; acetic acid 0.050 M): 0.220 % w/v
- pH ([4]; acetic acid 0.050 M): 4.08
- imiquimod in solution ([4]; acetic acid 0.100 M): 0.430 % w/v
- pH ([4]; acetic acid 0.100 M): 3.97
- imiquimod in solution ([4]; citric acid 0.100 M): 0.010 % w/v
- pH ([4]; citric acid 0.100 M): 2.10
- imiquimod in solution ([4]; lactic acid 0.010 M): 0.130 % w/v
- pH ([4]; lactic acid 0.010 M): 4.20
- imiquimod in solution ([4]; lactic acid 0.050 M): 0.530 % w/v
- pH ([4]; lactic acid 0.050 M): 3.90
- imiquimod in solution ([4]; lactic acid 0.088 M): 0.840 % w/v
- pH ([4]; lactic acid 0.088 M): 3.71
- imiquimod in solution ([4]; lactic acid 0.100 M): 0.980 % w/v
- pH ([4]; lactic acid 0.100 M): 3.61
- imiquimod in solution [4, 15]: 0.881 % w/v
- pH [4, 15]: 3.90
- imiquimod in solution [4, 16]: 0.989 % w/v
- pH [4, 16]: 3.87
- imiquimod in solution [4, 17]: 0.969 % w/v
- pH [4, 17]: 3.88
- imiquimod in solution [4, 18]: 1.141 % w/v
- pH [4, 18]: 4.46
- imiquimod in solution [4, 19]: 1.048 % w/v
- pH [4, 19]: 3.85
- imiquimod in solution [4, 20]: 1.088 % w/v
- pH [4, 20]: 3.87
- imiquimod in solution [4, 21]: 0.972 % w/v
- pH [4, 21]: 3.89
- imiquimod in solution [4, 22]: 0.945 % w/v
- pH [4, 22]: 3.88
- imiquimod in solution [4, 23]: 1.004 % w/v
- pH [4, 23]: 3.86
- imiquimod in solution [4, 24]: 1.001 % w/v
- pH [4, 24]: 3.89
- imiquimod in solution [4, 25]: 0.997 % w/v
- pH [4, 25]: 3.83
- imiquimod in solution [4, 26]: 1.009 % w/v
- pH [4, 26]: 3.82
- imiquimod in solution [4, 27]: 0.872 % w/v
- pH [4, 27]: 3.82
- imiquimod in solution ([4]; phosphoric acid 0.100 M): 0.159 % w/v
- pH ([4]; phosphoric acid 0.100 M): 1.80
- imiquimod in solution ([4]; succinic acid 0.100 M): 0.079 % w/v
- pH ([4]; succinic acid 0.100 M): 2.94
- pKa [5]: about 4
- flux of imiquimod through the artificial barrier [6]: 1.95e-06 g·cm^−2·s^−1
- concentration at 24 h ([7]; pig, urine, after 24 hours, all imiquimod groups, read-out: imiquimod levels in urine): < 5000 ng/mL
- concentration at 8 h ([7]; plasma, after eight hours, any pig): < 2.1 ng/mL
- solubility in buffers (visual) ([8]; citrate, phosphate, acetate buffer, without acetic acid): slightly soluble
- appearance after dilution [8, 28]: clear, transparent solutions
- pH of the systems [8, 28]: lower than 3.6
- solubility ([8]; glacial (100%) acetic acid, organic solvent or mixture, thermodynamic from solid, room temperature): 100 mg/mL (≈ 416 mM)
- solubility (visual) ([8]; hydrochloric acid 0.1 N, 0.2 N and 2 N): slightly soluble
- solubility in glacial (100%) acetic acid ([8]; room temperature, visual): 10 % (w/v)
- pH ([9]; 5% CD LA 01): 3.90
- imiquimod solubility ([9]; 5% CD LA 01 (5% HP-β-CD in 0.1 M lactic acid)): 1.23 % w/w
- imiquimod solubility ([9]; 5% CD-16% PF127 LA 01): 1.15 % w/w
- pH ([9]; 5% CD-16% PF127 LA 01): 4.05
- pH ([9]; 5% PF127 LA 01): 3.92
- imiquimod solubility ([9]; 5% PF127 LA 01 (5% Poloxamer 407 in 0.1 M lactic acid)): 1.19 % w/w
- pH ([9]; 15% CD LA 01): 4.03
- imiquimod solubility ([9]; 15% CD LA 01 (15% HP-β-CD in 0.1 M lactic acid)): 1.37 % w/w
- imiquimod solubility ([9]; 15% CD-16% PF127 LA 01): 1.22 % w/w
- pH ([9]; 15% CD-16% PF127 LA 01): 4.25
- imiquimod solubility ([9]; 16% PF127 LA 01): 1.10 % w/w
- pH ([9]; 16% PF127 LA 01): 3.99
- imiquimod solubility ([9]; 20% PF127 LA 01): 1.04 % w/w
- pH ([9]; 20% PF127 LA 01): 4.16
- imiquimod solubility ([9]; DMSO): 0.09 % w/w
- imiquimod solubility ([9]; Glutamic acid 0.072M): 0.54 % w/w
- pH ([9]; Glutamic acid 0.072M): 3.95
- imiquimod solubility ([9]; Glycolic acid 0.1M): 0.68 % w/w
- pH ([9]; Glycolic acid 0.1M): 3.82
- pH ([9]; LA 0.025M): 3.93
- imiquimod solubility ([9]; LA 0.025M, 25° C., 24 h): 0.33 % w/w
- pH ([9]; LA 0.05M): 3.81
- imiquimod solubility ([9]; LA 0.05M, 25° C., 24 h): 0.58 % w/w
- pH ([9]; LA 0.1M): 3.73
- imiquimod solubility ([9]; LA 0.1M, 25° C., 24 h): 1.18 % w/w
- pH ([9]; LA 0.2M): 3.52
- imiquimod solubility ([9]; LA 0.2M, 25° C., 24 h): 2.20 % w/w
- imiquimod solubility ([9]; N-Methyl-pyrrolidone): 0.16 % w/w
- imiquimod solubility ([9]; PEG 400): 0.03 % w/w
- imiquimod solubility ([9]; Tartaric acid 0.1M): 0.01 % w/w
- pH ([9]; Tartaric acid 0.1M): 2.48
